This is an account of results in publication PMC7160832, “Phosphonium Ionic Liquid-Infused Poly(vinyl chloride) Surfaces Possessing Potent Antifouling Properties” (ACS Omega, 2020).

Some results are limits rather than exact numbers.

The test system of one data set is equine erythrocytes. Put plainly: Hemolysis assay of PILs. The data set is classed as cell-based. The following applies: for hemolytic activity (in words): concentrations up to 25 μg mL^–1, equine erythrocytes; for hemolysis: 1 h, 37 °C. The method, then:
To assess the potential of phosphonium-AOT ionic liquids to illicit a hemolytic effect, ionic liquids were assessed for the ability to induce hemolysis of equine erythrocytes according to a previous method.[51] Briefly, 10 mL of fresh defribrinated equine blood was rinsed three times with an equal volume of PBS by centrifugation at 900g for 15 min. Erythrocytes were resuspended in PBS to a concentration of 4% (v/v). Erythrocyte suspension (100 μL) was added to each well of a 96-well microtiter plate and exposed to varying concentrations of ionic liquid for 1 h at 37 °C in an orbital incubator. Exposed solutions were subsequently centrifuged at 1000g for 15 min, and 100 μL was transferred to a fresh 96-well microtiter plate and spectrophotometrically read at 414 nm to determine hemoglobin release. Hexadecyltrimethylammonium bromide (8 mM) was used as a positive control (100% hemolysis) and PBS as a negative control (0% hemolysis). Samples were run in quadruplicate, and percentage hemolysis was calculated as follows [drawing 1]

The test system of another data set is S. aureus (ATCC 6538). The experiment in a line: MIC and MBC by standardized broth dilution. The following applies: for MBC: 99.9% killing; for MBC / MIC: >1000 = beyond tested concentration range; for MIC: 24 h, MHB. The data set is classed as cell-based, Staphylococcus aureus. The method, then:
(§1) S. aureus (ATCC 6538) and P. aeruginosa (PA01) were maintained on cryopreservative beads (Microbank) at −80 °C and cultivated in 100 mL of MHB at 37 °C when needed. Overnight broth was centrifuged (3000 rpm, 12 min) and resuspended in PBS to achieve a final inoculum density of approximately 1 × 10^8 cfu mL^–1.
(§2) The microbiological performance of the ionic liquids was assessed using MHB inoculated with S. aureus or P. aeruginosa according to a standardized broth dilution method.[25] A stock solution of 0.2% w/v of ionic liquid was freshly prepared in sterile MHB by stirring at 37 °C until dissolved and then filtered using a sterile 0.22 μm membrane. Serial twofold dilutions were prepared to provide a concentration range of […] to 0.1% w/v. Inoculum was diluted in MHB to produce a final inoculum density of 1 × 10^6 cfu mL^–1, verified by viable count. The inoculum (100 μL) was added to an equal volume of ionic liquid and incubated for 24 h (37 °C, 100 rpm). Positive (100 μL ofMHB/100 μL of inoculum) and negative controls (200 μL of MHB) were included in each assay. A minimum of five replicates of each dilution and controls were included.
(§3) Determination of the MIC was taken as the lowest concentration that produced no visible growth after 24 h incubation.

Another data set relates to P. aeruginosa (PA01). The experiment in a line: MIC and MBC by standardized broth dilution. It counts as cell-based, Pseudomonas aeruginosa. The following applies: for MBC: 99.9% killing; for MBC / MIC: >1000 = beyond tested concentration range; for MIC: 24 h, MHB. The method, then:
as §1, §2, §3
Background: Dilution methods test growth across graded concentrations, often in twofold steps.

Details of data set [1]: method as in PMID 29518336. The following applies: cited from earlier work.
On the set-up of data set [2]: method as in earlier work. The following applies: ref 39 (Kruszewska et al.); cited from earlier work.
The next data set concerns P. aeruginosa. Also noted: method as in PMID 17655912. The following applies: 10^6 cfu mL^–1 P. aeruginosa inoculum, within 6 h, concentrations as low as 0.08 mg/L; cited from earlier work.
The mark [3] stands for this setting: 5 μg mL^–1, equine erythrocytes.
Where [4] appears, read: 25 μg mL^–1, equine erythrocytes.

On to `CCCCC(CC)COC(=O)CC(C(=O)OCC(CC)CCCC)S(=O)(=O)[O-].CCCCCCCCCCCCCCCCCC[P+](C)(CCCCCCCCCCCCCCCCCC)CCCCCCCCCCCCCCCCCC` [[P181818 1][AOT], trioctadecyl(methyl)phosphonium docusate], for which the “hemolytic activity (in words)” value in the data set on equine erythrocytes was “not hemolytic”. Besides, in the data set on S. aureus (ATCC 6538), the MBC was 500 μg mL^–1 and the MIC is 250 μg mL^–1. Further, in the data set on P. aeruginosa (PA01) (P. aeruginosa), the MBC is reported as greater than 1000 μg mL^–1 and the MIC is greater than 1000 μg mL^–1.
In turn, `CCCCC(CC)COC(=O)CC(C(=O)OCC(CC)CCCC)S(=O)(=O)[O-].CCCCCCCCCCCCCC[P+](CCCCCCCC)(CCCCCCCC)CCCCCCCC` [[P888 14][AOT], trioctyl(tetradecyl)phosphonium docusate] returned a hemolysis in the data set with equine erythrocytes (setting [3]) of less than 10%. In the data set with equine erythrocytes (setting [4]), the hemolysis is recorded as 102.3%. Moreover, in the data set on S. aureus (ATCC 6538), the “MIC potency relative to the other [AOT]-containing ionic liquids” value is on record as 16–128 fold, the MBC is 7.81 μg mL^–1 and the MIC was determined as 3.91 μg mL^–1. Further, in the data set with P. aeruginosa (PA01), the “rise of MBC against P. aeruginosa relative to S. aureus” value is given as 128 fold and the “rise of MIC against P. aeruginosa relative to S. aureus” value turned out to be 64 fold. Moreover, in the data set on P. aeruginosa (PA01) (P. aeruginosa), the MBC is given as 1000 μg mL^–1 and the MIC was found to be 250 μg mL^–1.
Broadly, the aqueous solubility is the concentration that dissolves in the medium under given conditions. For `CCCCCCCCCCCCCC[P+](CCCCCC)(CCCCCC)CCCCCC.O=S(=O)([N-]S(=O)(=O)C(F)(F)F)C(F)(F)F` [[P666 14][Tf2N], Trihexyl(tetradecyl)phosphonium bis(trifluoromethylsulfonyl)imide], the MBC against S. aureus (ATCC 6538) and in the data set on P. aeruginosa (PA01) (P. aeruginosa) was greater than 1000 μg mL^–1 throughout. For the same molecule, the MIC with S. aureus (ATCC 6538) and against P. aeruginosa (PA01) (P. aeruginosa) was greater than 1000 μg mL^–1 in each case. The “antibacterial activity / growth inhibition (in words)” value in the data set with S. aureus (ATCC 6538) (within the tested concentration range) was “no antibacterial activity”; in the data set on P. aeruginosa (PA01) (P. aeruginosa, within the tested concentration range), “no antimicrobial activity”. Moreover, the aqueous solubility in data set [1] was 260 µM.
As for `CCCCC(CC)COC(=O)CC(C(=O)OCC(CC)CCCC)S(=O)(=O)O` (stereo not shown) [sodium docusate], in data set [2], the MIC is given as 3000 μg mL^–1.
On to Silver ions, for which, in the data set on P. aeruginosa, the eradication of inoculum was no more than 99.999%.
Consider `CCCCC(CC)COC(=O)CC(C(=O)OCC(CC)CCCC)S(=O)(=O)[O-].CCCC[P+](CCO)(CCCC)CCCC` (stereo not shown) [[P444 2OH][AOT], tributyl(hydroxyethyl)phosphonium docusate], for which the results for the hemolysis in the data set with equine erythrocytes (setting [3]) and with equine erythrocytes (setting [4]) were less than 10% and 99.39%, respectively. The MBC in the data set on S. aureus (ATCC 6538) was 250 μg mL^–1; in the data set with P. aeruginosa (PA01) (P. aeruginosa) it was greater than 1000 μg mL^–1. The MIC is on record as 62.5 μg mL^–1 in the data set with S. aureus (ATCC 6538) and greater than 1000 μg mL^–1 in the data set with P. aeruginosa (PA01) (P. aeruginosa).
As to `CCCCC(CC)COC(=O)CC(C(=O)OCC(CC)CCCC)S(=O)(=O)[O-].CCCCCCCCCCCCCC[P+](CCCCCC)(CCCCCC)CCCCCC` [[P666 14][AOT], Trihexyl(tetradecyl)phosphonium docusate], the “hemolytic activity (in words)” value in the data set with equine erythrocytes is recorded as “not hemolytic”. Besides, in the data set on S. aureus (ATCC 6538), the MBC is 1000 μg mL^–1 and the MIC is 500 μg mL^–1. Besides, in the data set on P. aeruginosa (PA01) (P. aeruginosa), the MBC is greater than 1000 μg mL^–1 and the MIC is recorded as greater than 1000 μg mL^–1.
